Values of other authors, collected in patent US20240309009A1, “Anxiolytic Compounds, Pharmaceutical Compositions, and Methods of Treating Anxiety and Other Disorders” (Miralogx LLC, priority 2022, published 2024).
Like-named read-outs stand apart in the source and are kept apart here.

Legend:
[1] = tested on: cell cultures
[2] = tested on: zebrafish
[3] = tested on: rat nerve cells
[4] = unlike ibogaine

| SMILES | duration of effects (inhaled or injected) | duration of effects (orally ingested along with a monoamine oxidase inhibitor (MAOI)) | toxicity compared with ibogaine [1] | toxicity compared with ibogaine [2] | formation of new dendrites (branches) [3] | formation of new spines on dendrites [3] | water solubility [4] |
| --- | --- | --- | --- | --- | --- | --- | --- |
| CN(C)CCc1c[nH]c2ccccc12 [DMT, N,N-Dimethyltryptamine] | 5 to 15 min | three |  |  |  |  |  |
| COc1ccc2c3c([nH]c2c1)CCN(C)CC3 [TBG, Tabernanthalog] |  |  | less toxic than ibogaine | less toxic than ibogaine | increased formation of new dendrites | new spines on those dendrites | water-soluble |
